Experimental data from the supplement of paper PMC10307832.

What was measured:
Assay in all cases: relative viability (nuclei count vs DMSO), 5 days (fraction); higher = more cells survive
Dasatinib + Vorinostat = compound: Cc1nc(Nc2ncc(C(=O)Nc3c(C)cccc3Cl)s2)cc(N2CCN(CCO)CC2)n1 [Dasatinib] + O=C(CCCCCCC(=O)Nc1ccccc1)NO [Vorinostat] (partner 1 µM)
Method in brief: (§1)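 Values are medians from duplicate plates. Each reflects relative viability, defined as the nuclei count of treated wells over that of vehicle wells. Lung cancer cell lines in 1536-well plates were pin-tool dosed one day after seeding with one drug alone or with a fixed anchor-drug dose plus five library-drug doses (not always all listed) in √10 steps, then fixed, stained and imaged at 4× after 5 days.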

ALW-II-49-7 + Bortezomib = compound: Cc1ccc(C(=O)Nc2cccc(C(F)(F)F)c2)cc1Nc1cncc(C(N)=O)c1 [ALW-II-49-7] + CC(C)C[C@H](NC(=O)[C@H](Cc1ccccc1)NC(=O)c1cnccn1)B(O)O [Bortezomib] (partner 0.002 µM)
Method in brief: as §1

XMD13-2 + Luminespib = compound: C1CC1C(=O)NC2=NNC3=C2C=CC(=C3)C4=CC(=CC=C4)C(=O)NC5CC5 [XMD13-2] + CCNC(=O)c1noc(-c2cc(C(C)C)c(O)cc2O)c1-c1ccc(CN2CCOCC2)cc1 [Luminespib] (partner 0.01 µM)
Method in brief: as §1

ALW-II-49-7 + Luminespib = compound: Cc1ccc(C(=O)Nc2cccc(C(F)(F)F)c2)cc1Nc1cncc(C(N)=O)c1 [ALW-II-49-7] + CCNC(=O)c1noc(-c2cc(C(C)C)c(O)cc2O)c1-c1ccc(CN2CCOCC2)cc1 [Luminespib] (partner 0.01 µM)
Method in brief: as §1

Cell Line	relative viability (Dasatinib + Vorinostat; first compound 0.005 µM)	relative viability (Dasatinib + Vorinostat; first compound 0.01581 µM)	relative viability (Dasatinib + Vorinostat; first compound 0.05 µM)	relative viability (Dasatinib + Vorinostat; first compound 0.1581 µM)	relative viability (Dasatinib + Vorinostat; first compound 0.5 µM)	relative viability (ALW-II-49-7 + Bortezomib; first compound 0.08 µM)	relative viability (ALW-II-49-7 + Bortezomib; first compound 0.253 µM)	relative viability (ALW-II-49-7 + Bortezomib; first compound 0.8 µM)	relative viability (ALW-II-49-7 + Bortezomib; first compound 2.53 µM)	relative viability (ALW-II-49-7 + Bortezomib; first compound 8 µM)	relative viability (XMD13-2 + Luminespib; first compound 0.05 µM)	relative viability (XMD13-2 + Luminespib; first compound 0.1581 µM)	relative viability (XMD13-2 + Luminespib; first compound 0.5 µM)	relative viability (XMD13-2 + Luminespib; first compound 1.581 µM)	relative viability (XMD13-2 + Luminespib; first compound 5 µM)	relative viability (ALW-II-49-7 + Luminespib; first compound 0.08 µM)	relative viability (ALW-II-49-7 + Luminespib; first compound 0.253 µM)	relative viability (ALW-II-49-7 + Luminespib; first compound 0.8 µM)	relative viability (ALW-II-49-7 + Luminespib; first compound 2.53 µM)	relative viability (ALW-II-49-7 + Luminespib; first compound 8 µM)
HCC-366	0.377	0.225	0.312	0.238	0.22	1.1	0.578	1.02	1.14	1.13	–	–	–	–	–	–	–	–	–	–
HCC-827	0.787	0.744	0.742	0.615	0.157	1.13	1.03	1.03	1.1	1.03	0.809	0.424	0.725	0.576	0.661	0.795	0.587	0.678	0.683	1.76
HOP-62	0.738	0.606	0.642	0.293	0.132	0.852	1.06	1.02	0.369	0.965	1	0.878	0.925	0.881	0.938	0.959	0.883	0.75	0.702	0.735
IA-LM	1.13	0.89	1.03	0.691	0.538	1.12	0.621	0.509	0.217	0.161	–	–	–	–	–	–	–	–	–	–
LC-2-ad	0.723	0.675	0.75	0.493	0.337	1.06	0.997	1.01	1.05	0.983	1.16	1.06	0.973	0.992	0.952	0.962	1.04	1.02	0.494	1
